Experimental data reported in PMC11963559, “Identification of novel thiazole derivatives as flaviviral protease inhibitors effective against Dengue (DENV2) and Japanese encephalitis viruses” (Antimicrobial Agents and Chemotherapy, 2025).

Assays:
Format in all cases: cell-based
JEV [1] = experiment: Time course of JEV genomic RNA accumulation in BHK-21 cells (qRT-PCR); details: JEV MOI 0.1, BHK-21, 10 µM; for effect on viral genomic RNA abundance at early time points: 1 and 9 hpi; for effect on viral genomic RNA abundance at later time point: 18 hpi
From the text: This is because the initial translation of the viral RNA genome leads to the production of a viral polyprotein, which upon processing by the NS2B–NS3 protease, leads to the generation of viral RdRp (NS5) and other NS proteins necessary for RNA synthesis ([15]). Thus, inhibition of the NS2B–NS3 protease by the two potential compounds should affect viral genomic RNA accumulation within infected cells only at later time points post-infection ([46]). To validate this hypothesis, we assessed the effect of the compounds upon dynamic accumulation of viral RNA at different times of post-infection. Cells were infected with the virus in the absence or presence of 3aq or 3au (10 µM) and harvested at different time points post-infection, and viral genomic RNA copies were estimated using qRT-PCR. […] As expected, the abundance of viral genomic RNA remained low at the early time points of infection (1 and 9 hpi) and subsequently peaked at 18 hpi (Fig. 9B). […] This is an indirect effect of NS2B–NS3 protease inhibition, which in turn blocks polyprotein processing and assembly of the viral RNA synthesis machinery.
Fig 9 Detailed molecular mechanism of the inhibitory action of the compounds. (A and B) BHK-21 cells were infected with JEV virus (MOI = 0.1) for 1, 9, and 18 h with or without 10 µM of compounds. Total RNA extracted at indicated times was evaluated by qRT-PCR. The data are expressed as fold changes of the viral RNA levels normalized to GAPDH control relative to the corresponding DMSO treated samples at each time point. (B) Same experiment as in (A) but expressed as relative to the initial inoculation amount (at 1 hpi). BHK-21 cells were infected with JEV (MOI: 0.1) and treated with 3au (C) and 3aq (D) pre + during + post (−3), during + post (0), and post (3, 6, 9) infection. Viral RNA load were assessed at 24 hpi using qRT-PCR. The data are expressed as fold changes of the viral RNA levels normalized to GAPDH control relative to the corresponding DMSO-treated sample. Each experiment is performed in biological triplicate and repeated thrice. Statistical significance was analyzed by two-tailed equal variance Student’s t-test: *P < 0.05, **P < 0.01, ***P < 0.001, and ****P < 0.0001.
To quantify the viral RNA copy number, quantitative RT-PCR (qRT-PCR) was performed in duplicate using iTaq Universal SYBR Green Supermix (Bio-Rad). The cDNAs used for qPCR analysis were prepared using Power SYBR Green PCR Master Mix (Bio-Rad, #172–5125) in a QuantStudio5 Applied Biosystems real-time PCR system. […] Delta Ct for both control and compound-treated samples was determined and subsequently analyzed by determining the delta Ct to determine the mRNA expression of target genes in control vs treated samples.

JEV [2] = experiment: Time of drug addition assay, JEV in BHK-21 cells; details: JEV MOI 0.1, BHK-21, 10 µM, viral RNA at 24 hpi
Protocol: Considering the mode of action of the compounds 3au and 3aq, they should satisfy this criteria. To evaluate this potential, time of addition experiment was conducted for both compounds to inhibit JEV infection. BHK-21 cells and the virus were pre-treated for 3 h with 10 µM of compounds followed by infection and subsequent incubation in presence of the same (pre + during + post). Alternatively, the compounds (10 µM) were added either during the infection (during + post) or at different times post-infection as indicated (Fig. 9C and D). Virus amplification was measured at 24 hpi by measuring viral RNA accumulation as described above. […] This sustained inhibition indicates a potential therapeutic window for intervention, highlighting the compounds' ability to impede viral replication after initial infection. […] Together, our data not only established the antiviral activity of the compounds against DENV2 and JEV but also pointed out the mechanism of action of these compounds during the specific steps of the virus life cycle.
BHK-21 cells were seeded in a 12-well cell culture plate at a density of (0.5 × 10^6 cells/well). Upon 85%–90% confluency, cells were infected with JEV virus at an MOI of 0.1. Cells were incubated for 1.5 h at 37 °C. […] Cells were harvested at 24 hpi, and the viral genomic RNA levels were quantified using qRT-PCR.

JEV [3] = experiment: JEV progeny virus titer in BHK-21 supernatant (TCID50 assay); details: BHK-21, read-out: IC50 of viral titer reduction (called TCID50 in the source)
Protocol: To this end, we assessed the antiviral activity of shortlisted compounds by evaluating their ability to inhibit progeny virus production. BHK-21 cells were infected with DENV2 and JEV (MOI: 0.1) in the presence of different concentrations of 3aq or 3au or with DMSO, and viral titer was determined in the supernatants harvested at 18 hpi. Compound 3aq caused the maximum reduction of viral titer showing TCID50 of 5.18 ± 0.87 and 2.29 ± 0.50 µM against DENV2 and JEV, respectively (Fig. 8B and D).
During DENV2 and JEV infection, the viral supernatant was collected and used in the TCID50 assay to determine the viral titer. Then, 3 × 10^4 BHK-21 cells per well were seeded in a 96-well cell culture microtiter plate the day before titration. The virus stock was diluted with infection media (DMEM + 2% FBS) to attain virus dilutions of 1 × 10^−2 to 6.4 × 10^−7 in 12 parallels, with the last column of the 96-well plate serving as virus-free cell control. On the day of the assay, when the cell had reached 90%–95% confluency, the growth medium was aspirated using a multichannel pipette, and 100 µL of virus inoculum of different dilutions was transferred to each well, keeping the last well only in infection media without virus. The cells were then incubated at 37 °C in a humidified 5% CO2 chamber. […] TCID50 was calculated using the Spearman and Karber methods.

Compound	effect on viral genomic RNA abundance at early time points (JEV [1])	effect on viral genomic RNA abundance at later time point (JEV [1])	inhibition of viral replication by time of addition (JEV [2])	IC50 (JEV [3]) [nM]
COc1ccc(-c2csc(N/N=C(\C)c3ccc(O)cc3)n2)cc1 [3aq]	no effect	drastic effect	significantly inhibited viral replication even when added at 9 hpi	2290 ± 500
COc1ccc(-c2csc(N/N=C(\C)c3cc(O)cc(O)c3)n2)cc1 [3au]	no effect	drastic effect	significantly inhibited viral replication even when added at 9 hpi	2720 ± 240
